Legend:
Assay type in all cases: cell-based
Details in all cases: with inhibitor at 4 μg/mL
[1] = system: K. oxytoca 176877; assay: Broth microdilution MIC (strain enzymes: SHV-105)
[2] = system: K. pneumoniae 304487; assay: Broth microdilution MIC (strain enzymes: SHV-12,TEM-1)
[3] = system: E. coli 2806; assay: Broth microdilution MIC (strain enzymes: SHV-12, TEM-1)
[4] = system: E. coli SI-M004; assay: Broth microdilution MIC (strain enzymes: SHV-2, GES-12)
[5] = system: E. coli Si-FDL-GES; assay: microbe, parasite or virus in culture
[6] = system: E. coli 1924; assay: Broth microdilution MIC (strain enzymes: TEM-12)
[7] = system: K. pneumoniae ESBL 7 #2; assay: Broth microdilution MIC (strain enzymes: SHV-12, CTX-M15, TEM-1)
[8] = system: K. pneumoniae 329633; assay: Broth microdilution MIC (strain enzymes: SHV-5, TEM-1)
[9] = system: K. pneumoniae 319478; assay: Broth microdilution MIC (strain enzymes: SHV-12, CTX-M3 and TEM-1)
[10] = system: panel of ESBL-producing Enterobacteriaceae (40 strains); assay: Broth microdilution MIC50/MIC90 summary over the panel
[11] = system: K. pneumoniae KP 4; assay: Broth microdilution MIC (strain enzymes: SHV-2a, SHV-5, TEM-1)
[12] = system: K. pneumoniae ESBL 10; assay: Broth microdilution MIC (strain enzymes: SHV-12, TEM-1)
[13] = system: E. coli ESBL 5; assay: Broth microdilution MIC (strain enzymes: CTX-M15, TEM-1)
[14] = system: K. pneumoniae ESBL 8 #2; assay: Broth microdilution MIC (strain enzymes: SHV-12, TEM-1)
[15] = system: E. coli 25922; assay: Broth microdilution MIC (strain enzymes: None detected)
[16] = system: E. coli 3327; assay: Broth microdilution MIC (strain enzymes: TEM-1, SHV-12)
[17] = system: K. pneumoniae ESBL 7 #1; assay: Broth microdilution MIC (strain enzymes: SHV-12, TEM-1)
[18] = system: K. oxytoca 496 #2; assay: Broth microdilution MIC (strain enzymes: SHV-105, TEM-1)
[19] = system: E. coli ESBL 2; assay: Broth microdilution MIC (strain enzymes: TEM-1)

O=C(O)[C@H]1/C(=C/CO)O[C@@H]2CC(=O)N21 [Clavulanic acid, clavulanic acid, reference compound]
MIC of cefalexin (LEX) [1]: 2 µg/mL | MIC of cefdinir (CDR) [1]: 2 µg/mL | MIC of cefixime (CFM) [1]: 0.25 µg/mL | MIC of ceftibuten (CTB) [1]: 0.125 µg/mL | MIC of cefalexin (LEX) [2]: 0.5 µg/mL | MIC of cefdinir (CDR) [2]: 0.5 µg/mL | MIC of cefixime (CFM) [2]: 0.25 µg/mL | MIC of ceftibuten (CTB) [2]: 0.125 µg/mL | MIC of cefalexin (LEX) [3]: 0.25 µg/mL | MIC of cefdinir (CDR) [3]: 0.25 µg/mL | MIC of cefixime (CFM) [3]: 1 µg/mL | MIC of ceftibuten (CTB) [3]: 0.25 µg/mL | MIC of cefalexin (LEX) [4]: 0.5 µg/mL | MIC of cefdinir (CDR) [4]: 0.5 µg/mL | MIC of cefixime (CFM) [4]: 1 µg/mL | MIC of ceftibuten (CTB) [4]: 0.5 µg/mL | MIC of cefalexin (LEX) [5]: 1 µg/mL | MIC of cefdinir (CDR) [5]: 1 µg/mL | MIC of cefixime (CFM) [5]: 0.5 µg/mL | MIC of ceftibuten (CTB) [5]: 0.25 µg/mL | MIC of cefalexin (LEX) [6]: 0.5 µg/mL | MIC of cefdinir (CDR) [6]: 0.5 µg/mL | MIC of cefixime (CFM) [6]: 1 µg/mL | MIC of ceftibuten (CTB) [6]: 0.5 µg/mL | MIC of cefalexin (LEX) [7]: >32 µg/mL | MIC of cefdinir (CDR) [7]: >32 µg/mL | MIC of cefixime (CFM) [7]: >32 µg/mL | MIC of ceftibuten (CTB) [7]: >32 µg/mL | MIC of cefalexin (LEX) [8]: 0.25 µg/mL | MIC of cefdinir (CDR) [8]: 0.25 µg/mL | MIC of cefixime (CFM) [8]: 0.03 µg/mL | MIC of ceftibuten (CTB) [8]: 0.03 µg/mL | MIC of cefalexin (LEX) [9]: 0.5 µg/mL | MIC of cefdinir (CDR) [9]: 0.5 µg/mL | MIC of cefixime (CFM) [9]: 0.5 µg/mL | MIC of ceftibuten (CTB) [9]: 0.06 µg/mL | Cefdinir MIC50 [10]: 0.5 µg/mL | Cefdinir MIC90 [10]: 2 µg/mL | Cefixime MIC50 [10]: 0.5 µg/mL | Cefixime MIC90 [10]: 2 µg/mL | Cefpodoxime MIC50 [10]: 0.5 µg/mL | Cefpodoxime MIC90 [10]: 4 µg/mL | Ceftibuten MIC50 [10]: 0.25 µg/mL | Ceftibuten MIC90 [10]: 2 µg/mL | Cephalexin MIC50 [10]: 16 µg/mL | Cephalexin MIC90 [10]: 32 µg/mL | MIC of cefalexin (LEX) [11]: 0.125 µg/mL | MIC of cefdinir (CDR) [11]: 0.125 µg/mL | MIC of cefixime (CFM) [11]: 0.125 µg/mL | MIC of ceftibuten (CTB) [11]: 2 µg/mL | MIC of cefalexin (LEX) [12]: 0.5 µg/mL | MIC of cefdinir (CDR) [12]: 0.5 µg/mL | MIC of cefixime (CFM) [12]: 0.125 µg/mL | MIC of ceftibuten (CTB) [12]: 0.125 µg/mL | MIC of cefalexin (LEX) [13]: 1 µg/mL | MIC of cefdinir (CDR) [13]: 1 µg/mL | MIC of cefixime (CFM) [13]: 1 µg/mL | MIC of ceftibuten (CTB) [13]: 0.5 µg/mL | MIC of cefalexin (LEX) [14]: 0.125 µg/mL | MIC of cefdinir (CDR) [14]: 0.125 µg/mL | MIC of cefixime (CFM) [14]: 0.03 µg/mL | MIC of ceftibuten (CTB) [14]: 0.06 µg/mL | MIC of cefalexin (LEX) [15]: 0.25 µg/mL | MIC of cefdinir (CDR) [15]: 0.25 µg/mL | MIC of cefixime (CFM) [15]: 0.5 µg/mL | MIC of ceftibuten (CTB) [15]: 0.5 µg/mL | MIC of cefalexin (LEX) [16]: 0.5 µg/mL | MIC of cefdinir (CDR) [16]: 0.5 µg/mL | MIC of cefixime (CFM) [16]: 2 µg/mL | MIC of ceftibuten (CTB) [16]: 1 µg/mL | MIC of cefalexin (LEX) [17]: 0.5 µg/mL | MIC of cefdinir (CDR) [17]: 0.5 µg/mL | MIC of cefixime (CFM) [17]: 0.25 µg/mL | MIC of ceftibuten (CTB) [17]: 0.125 µg/mL | MIC of cefalexin (LEX) [18]: 0.06 µg/mL | MIC of cefdinir (CDR) [18]: 0.06 µg/mL | MIC of cefixime (CFM) [18]: 0.03 µg/mL | MIC of ceftibuten (CTB) [18]: 0.125 µg/mL | MIC of cefalexin (LEX) [19]: >32 µg/mL | MIC of cefdinir (CDR) [19]: >32 µg/mL | MIC of cefixime (CFM) [19]: 32 µg/mL | MIC of ceftibuten (CTB) [19]: 4 µg/mL
